ChEMBL document CHEMBL5465560, “Selectivity Literature for EUbOPEN Chemogenomic Library” (2024)
Values belong to the compound of their own block, whether it stands above or below them.

Experiments:
[1] = biological target: T1, Membrane-associated tyrosine- and threonine-specific cdc2-inhibitory kinase (Homo sapiens) (UniProt Q99640); assay: Selectivity interaction (ProQinase) EUB0000171b PKMYT1
T1 sequence (whole entry): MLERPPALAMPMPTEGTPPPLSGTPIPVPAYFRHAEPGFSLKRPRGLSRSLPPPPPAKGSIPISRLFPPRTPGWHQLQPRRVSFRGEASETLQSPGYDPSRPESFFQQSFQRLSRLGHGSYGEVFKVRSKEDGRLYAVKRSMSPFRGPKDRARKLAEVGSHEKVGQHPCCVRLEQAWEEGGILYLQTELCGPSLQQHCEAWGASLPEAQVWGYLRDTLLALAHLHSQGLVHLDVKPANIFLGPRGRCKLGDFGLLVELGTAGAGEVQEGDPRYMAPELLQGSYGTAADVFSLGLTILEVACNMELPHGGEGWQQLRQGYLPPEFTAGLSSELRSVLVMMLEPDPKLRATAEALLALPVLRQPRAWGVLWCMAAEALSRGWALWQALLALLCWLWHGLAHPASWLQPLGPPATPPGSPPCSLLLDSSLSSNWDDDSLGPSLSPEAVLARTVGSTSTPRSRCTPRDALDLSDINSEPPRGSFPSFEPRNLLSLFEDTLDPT

[2] = biological target: T2, G protein-coupled receptor kinase 3 (Homo sapiens) (UniProt P35626); assay: Selectivity interaction (KinomeScan (DiscoverX)) EUB0000695a ADRBK2; conditions: at 100 nM
T2 sequence (whole entry): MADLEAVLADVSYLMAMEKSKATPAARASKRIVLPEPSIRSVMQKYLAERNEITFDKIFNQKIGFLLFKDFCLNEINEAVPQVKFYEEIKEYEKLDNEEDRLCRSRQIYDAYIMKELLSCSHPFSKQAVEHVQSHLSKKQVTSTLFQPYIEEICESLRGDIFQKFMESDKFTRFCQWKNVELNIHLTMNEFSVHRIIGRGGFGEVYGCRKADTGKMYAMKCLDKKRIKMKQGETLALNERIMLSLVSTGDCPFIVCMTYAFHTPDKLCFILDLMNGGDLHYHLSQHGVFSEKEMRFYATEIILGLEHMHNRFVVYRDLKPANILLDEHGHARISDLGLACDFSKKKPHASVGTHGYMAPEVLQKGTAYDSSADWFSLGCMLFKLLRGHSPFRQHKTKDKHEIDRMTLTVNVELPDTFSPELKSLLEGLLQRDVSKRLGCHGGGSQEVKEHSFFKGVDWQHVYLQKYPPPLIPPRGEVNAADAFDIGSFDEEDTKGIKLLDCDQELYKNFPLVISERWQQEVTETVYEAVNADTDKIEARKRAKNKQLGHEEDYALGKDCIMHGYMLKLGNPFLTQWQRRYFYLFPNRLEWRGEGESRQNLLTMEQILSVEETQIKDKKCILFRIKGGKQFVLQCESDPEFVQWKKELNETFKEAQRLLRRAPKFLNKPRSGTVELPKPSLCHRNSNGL

[3] = biological target: T3, Myosin-IIIb (Homo sapiens) (UniProt Q8WXR4); assay: Selectivity interaction (KinomeScan (DiscoverX)) EUB0001079a MYO3B; conditions: at 1 µM
T3 sequence (whole entry): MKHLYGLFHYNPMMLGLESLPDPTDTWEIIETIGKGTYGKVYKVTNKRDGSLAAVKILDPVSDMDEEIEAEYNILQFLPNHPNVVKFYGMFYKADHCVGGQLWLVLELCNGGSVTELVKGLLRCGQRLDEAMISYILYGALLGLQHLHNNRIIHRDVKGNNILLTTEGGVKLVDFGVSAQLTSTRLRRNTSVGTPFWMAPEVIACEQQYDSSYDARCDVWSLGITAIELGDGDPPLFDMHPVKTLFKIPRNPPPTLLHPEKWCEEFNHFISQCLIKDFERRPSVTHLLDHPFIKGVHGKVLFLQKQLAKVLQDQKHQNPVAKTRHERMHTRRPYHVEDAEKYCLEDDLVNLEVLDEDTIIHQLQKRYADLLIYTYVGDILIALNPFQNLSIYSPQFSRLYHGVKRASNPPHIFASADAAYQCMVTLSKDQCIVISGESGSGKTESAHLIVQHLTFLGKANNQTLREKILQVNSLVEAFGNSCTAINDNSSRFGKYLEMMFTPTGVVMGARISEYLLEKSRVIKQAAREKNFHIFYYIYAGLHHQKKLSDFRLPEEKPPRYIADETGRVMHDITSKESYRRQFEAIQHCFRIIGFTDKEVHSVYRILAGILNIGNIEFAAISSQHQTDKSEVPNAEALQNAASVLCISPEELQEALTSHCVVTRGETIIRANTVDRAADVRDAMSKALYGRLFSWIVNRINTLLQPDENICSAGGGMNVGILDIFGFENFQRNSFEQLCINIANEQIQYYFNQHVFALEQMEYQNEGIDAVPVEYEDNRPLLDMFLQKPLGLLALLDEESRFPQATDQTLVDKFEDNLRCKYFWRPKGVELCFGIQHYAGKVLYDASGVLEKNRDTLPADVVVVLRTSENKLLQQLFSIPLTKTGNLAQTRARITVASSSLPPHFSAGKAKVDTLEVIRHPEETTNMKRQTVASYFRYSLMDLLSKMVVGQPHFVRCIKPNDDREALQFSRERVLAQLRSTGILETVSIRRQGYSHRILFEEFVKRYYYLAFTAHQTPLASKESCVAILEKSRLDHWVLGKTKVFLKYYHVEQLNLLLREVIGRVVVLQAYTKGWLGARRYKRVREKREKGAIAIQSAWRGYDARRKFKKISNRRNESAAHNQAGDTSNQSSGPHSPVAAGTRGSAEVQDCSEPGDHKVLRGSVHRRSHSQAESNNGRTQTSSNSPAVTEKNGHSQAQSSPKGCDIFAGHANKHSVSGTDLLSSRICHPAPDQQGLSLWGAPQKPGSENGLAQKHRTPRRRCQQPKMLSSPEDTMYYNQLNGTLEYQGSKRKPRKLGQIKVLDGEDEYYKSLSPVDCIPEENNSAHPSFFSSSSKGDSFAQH

[4] = biological target: T4, Serine/threonine-protein kinase 17A (Homo sapiens) (UniProt Q9UEE5); assay: Selectivity interaction (KinomeScan (DiscoverX)) EUB0001619a STK17A; conditions: at 1 µM
T4 sequence (whole entry): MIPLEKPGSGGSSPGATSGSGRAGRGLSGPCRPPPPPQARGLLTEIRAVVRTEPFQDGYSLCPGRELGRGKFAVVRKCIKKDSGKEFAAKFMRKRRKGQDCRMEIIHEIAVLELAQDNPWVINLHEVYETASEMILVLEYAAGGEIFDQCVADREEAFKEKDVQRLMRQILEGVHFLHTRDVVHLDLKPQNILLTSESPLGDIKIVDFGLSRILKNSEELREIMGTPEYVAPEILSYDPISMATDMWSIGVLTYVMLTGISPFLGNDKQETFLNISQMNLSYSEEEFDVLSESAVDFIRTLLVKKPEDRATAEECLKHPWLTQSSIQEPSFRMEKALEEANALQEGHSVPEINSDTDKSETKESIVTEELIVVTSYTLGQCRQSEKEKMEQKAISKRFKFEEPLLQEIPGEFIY

- % of control ([1]; at 1 µM): 74%
- % of control ([1]; at 5 µM): 56%
Compound: C=CC(=O)Nc1cccc(C(=O)Nc2ccc(Nc3cc(-c4[nH]c(SC)nc4C)ccn3)cc2)c1

Compound: Cc1cc(F)c(C(=O)Nc2cccc(-c3nncn3C(C)C)n2)cc1-n1cnc(C2CC2)c1
- % of control [2]: 91%

Compound: Nc1cnc(N2CCc3cc(S(=O)(=O)Nc4c(F)cc(Cl)cc4F)cc(N4CCCC4=O)c32)nc1 [TP-020n]
- % of control [3]: 100%

Compound: N#Cc1cccc(-c2c[nH]c3ncnc(N4CCOCC4)c23)c1
- % of control [4]: 88%
